Reference: patent publication US4859782A (priority 1987, dated 1989)
Converted amounts (≈) assume the structure as drawn. Where two headings read alike, the source gives them in different places.

Tests used:
[1] = test system: vesicular stomatitis virus (VSV); type: cell-based; details: CV-1 cells, 8 μg/well
CV-1 cells = details: for VSV cyt (cytotoxicity): VSV-infected CV-1 cells
Candida albicans [2] = test: microbe, parasite or virus in culture; details: read-out: Antifungal activity, […]
Saccharomyces cerevisiae = test: microbe, parasite or virus in culture; details: read-out: Antifungal activity, […]
Penicillium atrovenetum = test: microbe, parasite or virus in culture; type: cell-based; details: read-out: Antifungal activity, Pa: diameter of the zone of growth inhibition
Candida albicans [3] = test: microbe, parasite or virus in culture; details: read-out: Ca MIC
[4] = test system: herpes simplex type 1 (HSV-1); type: cell-based

SMILES: COC1CC(C)OC(CCC(C)C(O)C(C)C2OC(=O)C(C)=CCC(O)CC3C=CCC(CC(OC)C(C)C(O)CC(O)C(C)C(C(C)C(O)C(C)CCC4CC(OC)CC(C)O4)OC(=O)C(C)=CCC(O)CC4C=CCC(CC(OC)C(C)C(O)CC(O)C2C)O4)O3)C1 (stereo not drawn) [misakinolide, Misakinolide]
- VSV av (antiviral activity) [1]: +
- HSV-1 cyt (cytotoxicity) (CV-1 cells): 0
- VSV cyt (cytotoxicity) (CV-1 cells; 4 μg/well): 0
- VSV cyt (cytotoxicity) (CV-1 cells; 8 μg/well): 0
- zone of inhibition at 5 µg/disc (Candida albicans [2]): 10 mm
- zone of inhibition at 5 µg/disc (Saccharomyces cerevisiae): 12 mm
- zone of inhibition at 5 µg/disc (Penicillium atrovenetum): 10 mm
- MIC (Candida albicans [3]): 5 µg/mL (≈ 3.74 µM)
- HSV-1 av (antiviral activity) [4]: ++ and +
